Legend:
[1] = tested on: acute lung injury induced by LPS; assay: LPS-induced acute lung injury: tissue pathological examination of lung; assay type: in vivo, mouse (C57BL/6); settings: 100 mg/kg intraperitoneal; 6 hours after LPS; H&E, 400×
Experimental: The left lung tissue of the mice from each group was rinsed with PBS and was fixed using a fixating solution (10% paraformaldehyde prepared in PBS) for 24 hours, followed by subjecting to ethanol dehydration treatment. The dehydrated tissue was then embedded in paraffin and sliced, thereby obtaining a sample with 4 to 6 μm thickness. The paraffin was then removed from the sample. The tissue was then stained with hematoxylin and eosin, was observed using an optical microscope (IX81, Olympus) at 400× magnification, and an image thereof was captured using a digital camera (DP72, Olympus).

[2] = tested on: acute lung injury induced by LPS; assay: LPS-induced acute lung injury: myeloperoxidase (MPO) activity in lung tissue; settings: 100 mg/kg intraperitoneal, 60 minutes before LPS; 6 hours after LPS
[3] = tested on: foot edema induced by human neutrophil elastase; assay: Foot edema induced by human neutrophil elastase in mice
[4] = molecular target: human neutrophil elastase (Homo sapiens (Human), UniProt P08246); assay: Inhibition of human neutrophil elastase activity (MeO-Suc-Ala-Ala-Pro-Val-p-nitroanilide, OD405); assay type: biochemical; settings: mean ± SEM (n = 3), 30° C., 30 minutes
human neutrophil elastase, sequence (P08246 30-267): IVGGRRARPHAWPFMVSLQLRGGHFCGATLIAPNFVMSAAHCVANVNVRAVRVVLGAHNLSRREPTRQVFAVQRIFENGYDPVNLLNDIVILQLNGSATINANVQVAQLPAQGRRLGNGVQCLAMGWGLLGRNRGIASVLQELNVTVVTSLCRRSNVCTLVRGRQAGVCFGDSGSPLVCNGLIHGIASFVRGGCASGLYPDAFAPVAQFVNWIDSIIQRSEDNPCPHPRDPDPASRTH

Row | IC50 [4] [µM] | SMILES | lung histology (alveolar edema, interstitial lung edema, leukocyte infiltration) [1] | MPO activity in lung tissue vs pathological control group [2] | edema degree (change in foot thickness) vs pathological control group ([3]; 50 mg/kg and 100 mg/kg intraperitoneal, 60 minutes before elastase, 10th-240th minute) | reduction of edema degree compared with Sivelestat ([3]; 100 mg/kg intraperitoneal, Sivelestat 100 mg/kg)
1 |  | C/C(=N\O)c1ccccc1NS(=O)(=O)c1ccc(OC(=O)C(C)(C)C)cc1 [Compound 1, (E)-4-(N-(2-(1(hydroxyimino)ethyl)phenyl)sulfamoyl)phenyl pivalate] | minor alveolar edema, interstitial lung edema, and leukocyte infiltration | significantly reduced MPO activity | relatively lower edema degree | superior effect in reduction of edema degree to Sivelestat
2 | 159 ± 15.5 | C/C(=N\OCCCO)c1ccccc1NS(=O)(=O)c1ccc(OC(=O)C(C)(C)C)cc1 [Compound 7, (E)-4-(N-(2-(1-(3-hydroxypropoxyimino)ethyl)phenyl)sulfamoyl)phenyl pivalate] |  |  |  | 

— patent US9073833B1, “Oxime-based compound, pharmaceutical composition containing the same and method for preparing the same” (Chang Gung University, priority 2014, dated 2015)
